Values quoted from earlier work, collected in US8808764B2, “Methods and compositions for increasing growth hormones” (Quality IP Holdings, Inc., priority 2012, dated 2014).

Legend:
GH = conditions: subcutaneous injection of 0.06 IU in GH deficient subjects

Compound | mean level of GH reached (GH) [ng/mL] | elevation of serum hGH levels (hGH; 30 g, intravenous, in males) [fold] | increase in hGH levels (hGH; intravenous infusion of 183 mg/kg body weight in females) [fold]
HGH: human growth hormone given by subcutaneous injection to GH deficient subjects | 0.4 |  | 
N=C(N)NCCC[C@H](N)C(=O)O [arginine] |  | 8.6 | ≥ 20
